From US20190167589A1, “BIOMIMETIC PROTEOLIPID VESICLE COMPOSITIONS AND USES THEREOF” (The Methodist Hospital, priority 2016, published 2019)

Columns and labels:
[1] = target: T1, Tyrosyl DNA Phosphodiesterase 2 (TDP2) (Homo sapiens, UniProt O95551); assay: High-throughput screening for TDP2 inhibitory activity; format: biochemical
T1 sequence (O95551 1-362): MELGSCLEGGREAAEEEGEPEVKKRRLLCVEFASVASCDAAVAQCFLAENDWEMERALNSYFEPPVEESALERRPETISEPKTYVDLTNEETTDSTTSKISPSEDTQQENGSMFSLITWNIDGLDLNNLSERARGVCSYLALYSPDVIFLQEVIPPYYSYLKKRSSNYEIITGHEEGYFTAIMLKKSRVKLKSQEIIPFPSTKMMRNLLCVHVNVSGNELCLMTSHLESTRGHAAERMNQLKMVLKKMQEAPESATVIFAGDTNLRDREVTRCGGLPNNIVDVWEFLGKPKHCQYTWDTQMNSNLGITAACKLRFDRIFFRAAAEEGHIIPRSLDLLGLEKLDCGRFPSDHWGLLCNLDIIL

[2] = test system: human lung cancer cells; assay: Synergy with Etoposide in killing cancer cells in vitro; format: cell-based
[3] = test system: LPS-induced ear inflammation; assay: Anti-inflammatory efficacy in LPS-induced local ear inflammation; format: in vivo, mice; settings: treatment 30 min after LPS; DXM 5 mg/kg where loaded
Method: Explanted mouse ears were washed twice with PBS and embedded in a cryomold in O.C.T. (Tissue-Tek® O.C.T. Compound, Sakura® Finetek), and instantly frozen at −80° C. Ten μm-thick slides were obtained cutting ears block with a cryostat at −20° C. The slides were stored at −20° C. For hematoxylin and eosin (H/E) staining, slides were thawed, hydrated, washed and stained with hematoxylin and eosin (Sigma-Aldrich).
Once cryo-sections were obtained as described in the previous paragraph, immunofluorescence (IF) staining was performed as previously reported (Gelain et al., 2010). Briefly, slides were thawed and blocked with BSA 5% (Sigma-Aldrich) PBS 1× solution. After washing, they were incubated overnight at 4° C. with anti-neutrophil antibody (Alexa Fluor® 647 anti-mouse Ly-6G/Ly-6C (Gr-1) Biolegend. Excess anti-neutrophil antibody was washed out with PBS 1X. Cells nuclei were stained with DAPI. Slides were sealed with ProLong Gold antifade reagent (Life Technologies™). Images were captured with an Eclipse® Ti Inverted Fluorescent Microscope equipped with Hamamatsu Digital Camera C11440 ORCA-Flash 2.8.
Particles were administrated 30 min after LPS injection.
Explanted Mice ears were washed twice with PBS and embedded in a cryomold in O.C.T. (Tissue-Tek® O.C.T. Compound, Sakura® Finetek), and instantly frozen at −80° C. […]

Compound | TDP2 inhibitory activity [1] | synergy with Etoposide in cancer cell killing [2] | tissue architecture (H&E staining) [3]
COc1cc2c(cc1OC)-c1c(OC)c(OC)cc3c1[C@H](C2)N(C)CC3 [Glaucine] | TDP2 inhibitor | able to enhance Etoposide mediated cancer cell killing | 
C[C@@H]1C[C@H]2[C@@H]3CCC4=CC(=O)C=C[C@]4(C)[C@@]3(F)[C@@H](O)C[C@]2(C)[C@@]1(O)C(=O)CO [free DXM, Dexamethasone] |  |  | alteration of tissue architecture
